Assay [1] has as its system human B cell lines VDS-O and CA-46. Kind of assay: Proliferation of indicator B cell lines. The format is cell-based. The settings on record: 1-100 μg/ml. From the text: Human mononuclear cells, and mononuclear cells enriched for T or B lymphocytes, were used in proliferation assays in the presence of phytohemagglutinin (Sigma), pokeweed-mitogen (Sigma), or Epstein-Barr virus (B95-8 strain), as described (Tosato et al., J. Immunol. 140:4329-4336, 1988). The lymphoblastoid cell line VDS-O (Tosato, et al., J. Immunol. 137:2037-2042, 1986); the Burkitt lymphoma cell lines CA46, BL-41, KK124, Ag876, SHO (Cherney et al., Cancer Res. 57:2508-2515, 1997); the T-cell line Molt-4 (ATCC); the Hodgkin's lymphoma cell line Hs445 (ATCC); the prostate adenocarcinoma cell lines TSU-Prl (from A. Passaniti, NIH, Baltimore, Md.), Du145 (ATCC), and PC3 (ATCC); and the acute promyelocytic leukemia cell line HL-60 (ATCC) were cultured in RPMI 1640 medium with 10% heat inactivated fetal calf serum (BioWhittaker), 20 mM L-glutamine (Sigma) and 5 μg/ml gentamicin, and tested in 3-5 day proliferation assays at cell densities ranging from 300 to 2400 cells/well. All other cell lines were tested for proliferation in 3-day assays. The neuroblastoma cell line SKNMC (ATCC) was cultured in EMEM medium (BioWhittaker) with 10% heat inactivated fetal calf serum (BioWhittaker) and 5 μg/ml gentamicin (Sigma) and tested for proliferation at 125-1000 cells/well. The lung adenocarcinoma cell line A549 (ATCC) was cultured in F-12 Nutrient Mixture (HAM, GIBCO BRL) with 10% heat inactivated fetal calf serum (BioWhittaker) and 5 μg/ml gentamicin (Sigma), and tested for proliferation at 250-2000 cells/well. The breast adenocarcinoma MDA-MB-468 (ATCC) and the Wilms tumor SK-NEP-1(ATCC) cell lines were cultured in Leibovitz L-15 medium (GIBCO BRL) supplemented with 10% heat inactivated fetal calf serum (BioWhittaker) and 5 μg/ml gentamicin (Sigma), and tested for proliferation at 300-2500 cells/well. The colon carcinoma cell line SW480 (ATCC), the melanoma cell line A-375 (ATCC), and human foreskin fibroblasts (H568, ATCC) were cultured in DMEM medium (BioWhittaker) with 10% heat inactivated fetal calf serum (BioWhittaker) and 5 μg/ml gentamicin (Sigma), and were tested for proliferation at 500-4000 cells/well. All cell lines tested mycoplasma negative.

The subject of assay [2] is Fetal bovine heart endothelial cells.
Description: Fetal bovine heart endothelial cells (American Type Culture Collection, ATCC, Manassas, Va.) were grown through passage 12 in DMEM culture medium (BioWhittaker, Walkersville, Md.) containing 10% heat inactivated fetal bovine serum (BioWhittaker), 100 ng/ml bFGF (R&D Systems, Minneapolis, Minn.), and 5 μg/ml gentamicin (Sigma). For proliferation assays, cells were trypsinized (Trypsin/EDTA, Gibco BRL), washed, suspended in culture medium (DMEM containing 10% heat inactivated fetal bovine serum and 5 μg/ml gentamicin), plated (800 cells/well in 0.2 ml culture medium) in triplicate onto 96 well plates, and incubated for 5 days.
Assay [3] deals with T1, recombinant MBP-calreticulin fragment 120-180 (Seq. I.D. No. 5) (human, UniProt P14211 137-197 (mouse entry)).
T1 construct: also called MBP-120-180 calreticulin; 61 amino acid calreticulin fragment
T1 sequence: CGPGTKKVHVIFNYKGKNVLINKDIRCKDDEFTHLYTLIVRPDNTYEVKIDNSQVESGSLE
Kind of assay: affinity column carrying a mixture of the three peptides on Sepharose. The procedure:
To this end, purified preparations of the VDS-O cell line containing full length calreticulin (Seq. I.D. No. 3) as well as N-terminal calreticulin fragments were prepared and tested to determine how these components were retained over an affinity column. To prepare the affinity column, three peptides were synthesized ([…], Seq. I.D. 13; KAFFKR, Seq. I.D. No. 33; and KVFFKR, Seq. I.D. No. 32), purified, and coupled to CNBr-activated Sepharose 4B (Pharmacia). […] The purified preparations of VDS-O cell line containing both full length as well as N-terminal calreticulin fragments were then loaded on the column (Starting material).
To address this issue further, recombinant MBP-calreticulin fragment 120–180 (Seq. I.D. No. 5) was tested for its ability to bind to the affinity column described supra.

The test system of assay [4] is peptides KLGFFKR, KAFFKR and KVFFKR coupled to CNBr-activated Sepharose. Kind of assay: Affinity column binding to integrin / steroid receptor motif peptides. The settings on record: elution with 20 mM EDTA. An excerpt: FIG. 18 is a Western blot analysis of fractions obtained through affinity purification over a column containing KXaa1FFXaa2R (Seq. I.D. No. 11) and KXaa1GFFKR (Seq. I.D. No. 10). Purified supernatants from the VDS-0 cell line containing full length calreticulin and N-terminal fragments of calreticulin were affinity purified over a mixture of peptides KLGFFKR (Seq. I.D. No. 13), KAFFKR (Seq. I.D. No. 33) and KVFFKR (Seq. I.D. No. 32) coupled to CNBr-activated Sepharose. Starting material (lane 1), unbound material (lanes 2, 3) and bound material (lanes 4, 5) were separated by SDS-PAGE, transferred to nitrocellulose, and subsequently stained with a rabbit antiserum against human calreticulin.
To this end, purified preparations of the VDS-O cell line containing full length calreticulin (Seq. I.D. No. 3) as well as N-terminal calreticulin fragments were prepared and tested to determine how these components were retained over an affinity column. To prepare the affinity column, three peptides were synthesized ([…], Seq. I.D. 13; KAFFKR, Seq. I.D. No. 33; and KVFFKR, Seq. I.D. No. 32), purified, and coupled to CNBr-activated Sepharose 4B (Pharmacia). First, the ability of calreticulin, purified from the culture supernatant of the lymphoblastoid cell line VDS-O, to selectively bind to the column and be eluted by a buffer solution containing 20 mM EDTA and 100 mM NaCl, was verified. […]

The subject of assay [5] is bFGF-induced neovascularization. Kind of assay: Murine Matrigel assay of angiogenesis in vivo. Details: species or system BALB/c nude mice. Particulars: Exp. 4; concentration not given; bFGF 150 ng/ml. The protocol: The murine Matrigel assay (Passaniti et al., Lab. Invest. 67:519-528, 1992) was employed to evaluate the effects of calreticulin and calreticulin fragments on angiogenesis in vivo. The Matrigel assay was performed as described by Angiolillo et al. (J. Exp. Med. 182:155-162, 1995). Matrigel, a crude extract of the Englebreth-Holm-Swarm tumor, was obtained from Collaborative Biomedical Products, Becton Dickinson Labware, Bedford, Mass. An aliquot (0.5 ml) of Matrigel alone or with desired additives was injected subcutaneously (s.c.) into the mid abdominal region of female BALB/c nude mice, 6-8 weeks old. Five mice were injected with each mixture. After 5-7 days, the animals were sacrificed, Matrigel plugs were removed, fixed in 10% neutral buffered formalin solution (Sigma), and embedded in paraffin. Tissues were sectioned (5μ thickness), and slides stained with Masson's trichrome. Quantitative analysis of angiogenesis in Matrigel plugs utilized a computerized semi-automated digital analyzer (Optomax, 40-10 System, Hollis, N.H.). The instrument was adjusted to evaluate a circular area measuring […] of Matrigel, and within this area, to measure the area occupied by cells. For each plug, 12-15 distinct fields were evaluated. The fields were randomly selected from each plug, and the operator was blind to the experimental design. The average area occupied by cells/1.26×10^5 […] Matrigel field was calculated. Results are expressed as the mean area occupied by cells/Matrigel field.
Matrigel plugs were fixed in 10% neutral buffered formalin solution (Sigma), embedded in paraffin, sectioned at 4 μm, and stained with Masson's trichrome by standard methods.

The mark [6] stands for this setting: Table 3 exp. 1, 50 μg/ml, bFGF 25 ng/ml, 5 days.
The mark [7] stands for this setting: Table 3 exp. 1, 100 μg/ml, bFGF 25 ng/ml, 5 days.
The mark [8] stands for this setting: Table 3 exp. 2, 100 μg/ml, bFGF 25 ng/ml, 5 days.
Where [9] appears, read: Table 3 exp. 1, 12.5 μg/ml, bFGF 25 ng/ml, 5 days.
[10] abbreviates: Table 3 exp. 1, 25 μg/ml, bFGF 25 ng/ml, 5 days.
Setting [11] is: Table 3 exp. 2, 50 μg/ml, bFGF 25 ng/ml, 5 days.
Where [12] appears, read: Table 1 exp. 3, estimated concentration 0.160 μg/ml, bFGF 25 ng/ml, 5 days.
Where [13] appears, read: Table 1 exp. 1-2, 1 μg/ml, bFGF 25 ng/ml, 5 days.

Where two headings read alike, the source gives them in different places. Where no end group is shown, it is not given here.

As to “GPGTKKVHVIFNYKGKNVLINKDIRCKDDEFTHLYTLIVRPDNTYEVKIDNSQVESGSLE [60 amino acid peptide]”, the figures for the “effect on proliferation of B cell lines VDS-O and CA-46” value in assay [1] and in assay [1] (listed as 60 amino acid fragment) were “neither peptide inhibited the proliferation” and “minimal effect”, respectively. The results for the “Inhibition (%)” value in assay [2] (setting [6]), in assay [2] (setting [7]) and in assay [2] (setting [8]) were 40.1%, 87.9% and 59.5%, respectively. Also, the results for the “Proliferation (mean cpm/culture)” value in assay [2] (setting [6]), in assay [2] (setting [7]) and in assay [2] (setting [8]) were 8,318 cpm/culture, 1,688 cpm/culture and 3,709 cpm/culture, respectively.
“NYKGKNVLINKDIRCKDDEFTHLYTLIVRPDNTYEVKIDNSQVESGSLE [49 amino acid peptide]”: the “effect on proliferation of B cell lines VDS-O and CA-46” value in assay [1] is “neither peptide inhibited the proliferation”; in assay [1] (listed as 49 amino acid fragment), “minimal effect”. For the same molecule, the “Inhibition (%)” value in assay [2] (setting [9]) came out at 30.2%; in assay [2] (setting [10]) it was 56.7%; in assay [2] (setting [6]), 68.7%; in assay [2] (setting [11]), 45.4%. For the same molecule, the “Proliferation (mean cpm/culture)” value is listed as 9,743 cpm/culture in assay [2] (setting [9]), 6,037 cpm/culture in assay [2] (setting [10]), 4,368 cpm/culture in assay [2] (setting [6]) and 5,004 cpm/culture in assay [2] (setting [11]).
Regarding RANTES [reference compound], in assay [2], the “inhibitory effect of control peptide in endothelial cell assays” value is reported as “no inhibitory effect”. For the same molecule, the “Proliferation (mean cpm/culture)” value is on record as 16,443 cpm/culture in assay [2] (setting [7]); 13,644 cpm/culture in assay [2] (Table 3 exp. 2, 12.5 μg/ml, bFGF 25 ng/ml, 5 days); 10,291 cpm/culture in assay [2] (setting [11]).
For “light chain of human ferritin: recombinant purified light chain of human ferritin [reference compound]”, the “effect on the proliferation of endothelial cells” value in assay [2] (1 pg to 1 μg/ml, not shown) was “minimal effect”.

B1: peptide KVFFKR (Seq. I.D. No. 32) (peptide)
peptide: KVFFKR
notes: Synthetic peptide, coupled to Sepharose in a mixture with the two other peptides; also called portion of the glucocorticoid receptor
In the case of B1, the binding result in assay [3] is given as “no binding”.

B2: peptide KLGFFKR (Seq. I.D. No. 13) (peptide)
peptide: KLGFFKR
notes: Synthetic peptide, coupled to Sepharose in a mixture with the two other peptides; also called portion of an integrin
Take B2: the binding result in assay [3] was “no binding”.

B3: Gel-eluted calreticulin: natural calreticulin from purified VDS-O B cell line supernatant, 55 kDa band eluted from gel (protein)
chain: EPAVYFKEQFLDGDGWTSRWIESKHKSDFGKFVLSSGKFYGDEEKDKGLQTSQDARFYALSASFEPFSNKGQTLVVQFTVKHEQNIDCGGGYVKLFPNSLDQTDMHGDSEYNIMFGPDICGPGTKKVHVIFNYKGKNVLINKDIRCKDDEFTHLYTLIVRPDNTYEVKIDNSQVESGSLEDDWDFLPPKKIKDPDASKPEDWDERAKIDDPTDSKPEDWDKPEHIPDPDAKKPEDWDEEMDGEWEPPVIQNPEYKGEWKPRQIDNPDYKGTWIHPEIDNPEYSPDPSIYAYDNFGVLGLDLWQVKSGTIFDNFLITNDEAYAEEFGNETWGVTKAAEKQMKDKQDEEQRLKEEEEDKKRKEEEEAEDKEDDEDKDEDEEDEEDKEEDEEEDVPGQAKDEL
On to B3, for which, in assay [4], the “binding to peptide affinity column” value was “retained by the column”. In addition, in assay [2] (setting [12]), the “Inhibition (%)” value is given as 81% and the Proliferation (mean cpm/culture) was 11,226 cpm/culture.

B4: Cleaved calreticulin: calreticulin cleaved (factor Xa) and purified from MBP-calreticulin (protein, UniProt P27797 18-417, looked up)
Calreticulin: B3 chain
As for B4, in assay [5], the “Inhibition (%)” value is recorded as 58% and the “Mean Surface Area Occupied by Cells” value is 3,464 mm^2/1.26 × 10^5 mm^2. Besides, in assay [2] (setting [13]), the “Inhibition (%)” value was 72% and the “Proliferation mean cpm/culture (±SD)” value is given as 7,088 (1846) cpm/culture.

B5: peptide KAFFKR (Seq. I.D. No. 33) (peptide)
peptide: KAFFKR
notes: Synthetic peptide, coupled to Sepharose in a mixture with the two other peptides; also called portion of the estrogen receptor
Take B5: in assay [3], the binding result was “no binding”.

Source of the values: patent publication US6867180B1, “Use of calreticulin and calreticulin fragments to inhibit endothelial cell growth and angiogenesis, and suppress tumor growth” (The United States of America as represented by the …, priority 1998, dated 2005).
